Measurements as given in patent US20230172206A1 (BASF SE, priority 2020, published 2023).

What follows are molecules tested on Phakopsora pachyrhizi (F129L) (assay: Protective control of soybean rust on soybeans (PHAKPA P2)). Details: protective P2, 4 ppm, soybean rust F129L isolate.
Assay type: in vivo

Point of comparison: CNC(=O)/C(=N/OC)c1cccc(C)c1CO/N=C(\C)c1c(F)ccc(C(F)(F)F)c1NC [compound 233], “% PHAKPA (F129L) Disease level P2 at 4 ppm” value 100%. Against it:
- CNC(=O)/C(=N/OC)c1cccc(C)c1CO/N=C(\C)c1cc(F)ccc1F [compound 131] — lower, 0%
- CO/N=C(/C(=O)OC)c1cccc(C)c1CO/N=C(\C)c1ccccc1C(C)C [compound 218] — the same, 100%
- CNC(=O)/C(=N/OC)c1cccc(C)c1CO/N=C(\C)c1ccccc1C1CC1 [compound 219] — lower, 60%
- CNC(=O)/C(=N/OC)c1cccc(C)c1CO/N=C(\C)c1ccccc1C(C)C [compound 220] — lower, 90%
- CNC(=O)/C(=N/OC)c1cccc(C)c1CO/N=C(\C)c1ccccc1CC(C)C [compound 221] — the same, 100%
- CO/N=C(/C(=O)OC)c1cccc(C)c1CO/N=C(\C)c1ccccc1CC(F)(F)F [compound 222] — the same, 100%
- CNC(=O)/C(=N/OC)c1cccc(C)c1CO/N=C(\C)c1ccccc1CC(F)(F)F [compound 223] — lower, 4%
- CO/N=C(/C(=O)OC)c1cccc(C)c1CO/N=C(\C)c1ccccc1C#N [compound 224] — lower, 97%
- CNC(=O)/C(=N/OC)c1cccc(C)c1CO/N=C(\C)c1ccccc1C#N [compound 225] — lower, 83%
- CNC(=O)/C(=N/OC)c1cccc(C)c1CO/N=C(\C)c1cccc(OC/C(C)=N/OC)c1 [compound 226] — lower, 28%
- CO/N=C(\C)COc1cccc(/C(C)=N/OCc2c(C)cccc2/C(=N\OC)C(=O)OC)c1 [compound 227] — the same, 100%
- CNC(=O)/C(=N/OC)c1cccc(C)c1CO/N=C(\C)c1cc(Cl)cc(C(F)(F)F)c1 [compound 228] — lower, 5%
- CO/N=C(/C(=O)OC)c1cccc(C)c1CO/N=C(\C)c1ccc(C)c(C(F)(F)F)c1 [compound 229] — lower, 27%
- CNC(=O)/C(=N/OC)c1cccc(C)c1CO/N=C(\C)c1ccc(C)c(C(F)(F)F)c1 [compound 230] — lower, 22%
- CO/C=C(/C(=O)OC)c1cccc(C)c1CO/N=C(\C)c1cccc(C(F)(F)F)c1 [compound 231] — lower, 0%
- CNC(=O)/C(=C/OC)c1cccc(C)c1CO/N=C(\C)c1cccc(C(F)(F)F)c1 [compound 232] — the same, 100%
- CNC(=O)/C(=N/OC)c1cccc(C)c1CO/N=C(\CC1CC1)c1cccc(C(F)(F)F)c1 [compound 234] — lower, 53%

Same assay, conditions: protective P2, 16 ppm, soybean rust F129L isolate

Point of comparison: CO/N=C(/C(=O)OC)c1cccc(C)c1CO/N=C(\C)c1ccccc1CC(F)(F)F [compound 222], “% PHAKPA (F129L) Disease level P2 at 16 ppm” value 57%. Against it:
- CNC(=O)/C(=N/OC)c1cccc(C)c1CO/N=C(\C)c1cc(F)ccc1F [compound 131] — lower, 0%
- CO/N=C(/C(=O)OC)c1cccc(C)c1CO/N=C(\C)c1ccccc1C(C)C [compound 218] — higher, 87%
- CNC(=O)/C(=N/OC)c1cccc(C)c1CO/N=C(\C)c1ccccc1C1CC1 [compound 219] — lower, 8%
- CNC(=O)/C(=N/OC)c1cccc(C)c1CO/N=C(\C)c1ccccc1C(C)C [compound 220] — lower, 30%
- CNC(=O)/C(=N/OC)c1cccc(C)c1CO/N=C(\C)c1ccccc1CC(C)C [compound 221] — higher, 63%
- CNC(=O)/C(=N/OC)c1cccc(C)c1CO/N=C(\C)c1ccccc1CC(F)(F)F [compound 223] — lower, 0%
- CO/N=C(/C(=O)OC)c1cccc(C)c1CO/N=C(\C)c1ccccc1C#N [compound 224] — higher, 100%
- CNC(=O)/C(=N/OC)c1cccc(C)c1CO/N=C(\C)c1ccccc1C#N [compound 225] — lower, 27%
- CNC(=O)/C(=N/OC)c1cccc(C)c1CO/N=C(\C)c1cccc(OC/C(C)=N/OC)c1 [compound 226] — lower, 3%
- CO/N=C(\C)COc1cccc(/C(C)=N/OCc2c(C)cccc2/C(=N\OC)C(=O)OC)c1 [compound 227] — lower, 47%
- CNC(=O)/C(=N/OC)c1cccc(C)c1CO/N=C(\C)c1cc(Cl)cc(C(F)(F)F)c1 [compound 228] — lower, 0%
- CO/N=C(/C(=O)OC)c1cccc(C)c1CO/N=C(\C)c1ccc(C)c(C(F)(F)F)c1 [compound 229] — lower, 2%
- CNC(=O)/C(=N/OC)c1cccc(C)c1CO/N=C(\C)c1ccc(C)c(C(F)(F)F)c1 [compound 230] — lower, 1%
- CO/C=C(/C(=O)OC)c1cccc(C)c1CO/N=C(\C)c1cccc(C(F)(F)F)c1 [compound 231] — lower, 0%
- CNC(=O)/C(=C/OC)c1cccc(C)c1CO/N=C(\C)c1cccc(C(F)(F)F)c1 [compound 232] — higher, 73%
- CNC(=O)/C(=N/OC)c1cccc(C)c1CO/N=C(\C)c1c(F)ccc(C(F)(F)F)c1NC [compound 233] — the same, 57%
- CNC(=O)/C(=N/OC)c1cccc(C)c1CO/N=C(\CC1CC1)c1cccc(C(F)(F)F)c1 [compound 234] — lower, 18%

Same assay, conditions: protective, inoculation 2 days after spraying, 4 ppm, % diseased leaf area

CO/C=C(/C(=O)OC)c1cccc(C)c1CO/N=C(\C)c1cccc(C(F)(F)F)c1 [compound 231] was tested, and the “PHAKPA (F129L) Disease level (%) P2 at 4 ppm” value was 0%.

Same assay, conditions: protective, inoculation 2 days after spraying, 16 ppm, % diseased leaf area

In the case of CNC(=O)/C(=N/OC)c1cccc(C)c1CO/N=C(\C)c1cc(F)ccc1F [compound 131], the “PHAKPA (F129L) Disease level (%) P2 at 16 ppm” value is reported as 0%.

These molecules were tested on Phakopsora pachyrhizi (F129L) (assay: Protective control of soybean rust on soybeans (PHAKPA P6)). Details: protective P6, 4 ppm, soybean rust F129L isolate.
Assay type: in vivo

Point of comparison: CNC(=O)/C(=N/OC)c1cccc(C)c1CO/N=C(\C)c1ccccc1C1CC1 [compound 219], “% PHAKPA (F129L) Disease level P6 at 4 ppm” value 87%. Against it:
- CNC(=O)/C(=N/OC)c1cccc(C)c1CO/N=C(\C)c1cc(F)ccc1F [compound 131] — lower, 2%
- CO/N=C(/C(=O)OC)c1cccc(C)c1CO/N=C(\C)c1ccccc1C(C)C [compound 218] — higher, 100%
- CNC(=O)/C(=N/OC)c1cccc(C)c1CO/N=C(\C)c1ccccc1C(C)C [compound 220] — higher, 100%
- CNC(=O)/C(=N/OC)c1cccc(C)c1CO/N=C(\C)c1ccccc1CC(C)C [compound 221] — higher, 100%
- CO/N=C(/C(=O)OC)c1cccc(C)c1CO/N=C(\C)c1ccccc1CC(F)(F)F [compound 222] — higher, 100%
- CNC(=O)/C(=N/OC)c1cccc(C)c1CO/N=C(\C)c1ccccc1CC(F)(F)F [compound 223] — lower, 28%
- CO/N=C(/C(=O)OC)c1cccc(C)c1CO/N=C(\C)c1ccccc1C#N [compound 224] — higher, 100%
- CNC(=O)/C(=N/OC)c1cccc(C)c1CO/N=C(\C)c1ccccc1C#N [compound 225] — higher, 100%
- CNC(=O)/C(=N/OC)c1cccc(C)c1CO/N=C(\C)c1cccc(OC/C(C)=N/OC)c1 [compound 226] — lower, 57%
- CO/N=C(\C)COc1cccc(/C(C)=N/OCc2c(C)cccc2/C(=N\OC)C(=O)OC)c1 [compound 227] — higher, 100%
- CNC(=O)/C(=N/OC)c1cccc(C)c1CO/N=C(\C)c1cc(Cl)cc(C(F)(F)F)c1 [compound 228] — lower, 22%
- CO/N=C(/C(=O)OC)c1cccc(C)c1CO/N=C(\C)c1ccc(C)c(C(F)(F)F)c1 [compound 229] — lower, 77%
- CNC(=O)/C(=N/OC)c1cccc(C)c1CO/N=C(\C)c1ccc(C)c(C(F)(F)F)c1 [compound 230] — lower, 73%
- CO/C=C(/C(=O)OC)c1cccc(C)c1CO/N=C(\C)c1cccc(C(F)(F)F)c1 [compound 231] — lower, 2%
- CNC(=O)/C(=C/OC)c1cccc(C)c1CO/N=C(\C)c1cccc(C(F)(F)F)c1 [compound 232] — higher, 100%
- CNC(=O)/C(=N/OC)c1cccc(C)c1CO/N=C(\C)c1c(F)ccc(C(F)(F)F)c1NC [compound 233] — the same, 87%
- CNC(=O)/C(=N/OC)c1cccc(C)c1CO/N=C(\CC1CC1)c1cccc(C(F)(F)F)c1 [compound 234] — lower, 53%

Same assay, conditions: protective P6, 16 ppm, soybean rust F129L isolate

Point of comparison: CO/C=C(/C(=O)OC)c1cccc(C)c1CO/N=C(\C)c1cccc(C(F)(F)F)c1 [compound 231], “% PHAKPA (F129L) Disease level P6 at 16 ppm” value 0%. Against it:
- CNC(=O)/C(=N/OC)c1cccc(C)c1CO/N=C(\C)c1cc(F)ccc1F [compound 131] — the same, 0%
- CO/N=C(/C(=O)OC)c1cccc(C)c1CO/N=C(\C)c1ccccc1C(C)C [compound 218] — higher, 100%
- CNC(=O)/C(=N/OC)c1cccc(C)c1CO/N=C(\C)c1ccccc1C1CC1 [compound 219] — higher, 43%
- CNC(=O)/C(=N/OC)c1cccc(C)c1CO/N=C(\C)c1ccccc1C(C)C [compound 220] — higher, 77%
- CNC(=O)/C(=N/OC)c1cccc(C)c1CO/N=C(\C)c1ccccc1CC(C)C [compound 221] — higher, 100%
- CO/N=C(/C(=O)OC)c1cccc(C)c1CO/N=C(\C)c1ccccc1CC(F)(F)F [compound 222] — higher, 93%
- CNC(=O)/C(=N/OC)c1cccc(C)c1CO/N=C(\C)c1ccccc1CC(F)(F)F [compound 223] — the same, 0%
- CO/N=C(/C(=O)OC)c1cccc(C)c1CO/N=C(\C)c1ccccc1C#N [compound 224] — higher, 100%
- CNC(=O)/C(=N/OC)c1cccc(C)c1CO/N=C(\C)c1ccccc1C#N [compound 225] — higher, 97%
- CNC(=O)/C(=N/OC)c1cccc(C)c1CO/N=C(\C)c1cccc(OC/C(C)=N/OC)c1 [compound 226] — higher, 7%
- CO/N=C(\C)COc1cccc(/C(C)=N/OCc2c(C)cccc2/C(=N\OC)C(=O)OC)c1 [compound 227] — higher, 57%
- CNC(=O)/C(=N/OC)c1cccc(C)c1CO/N=C(\C)c1cc(Cl)cc(C(F)(F)F)c1 [compound 228] — higher, 2%
- CO/N=C(/C(=O)OC)c1cccc(C)c1CO/N=C(\C)c1ccc(C)c(C(F)(F)F)c1 [compound 229] — higher, 6%
- CNC(=O)/C(=N/OC)c1cccc(C)c1CO/N=C(\C)c1ccc(C)c(C(F)(F)F)c1 [compound 230] — higher, 4%
- CNC(=O)/C(=C/OC)c1cccc(C)c1CO/N=C(\C)c1cccc(C(F)(F)F)c1 [compound 232] — higher, 83%
- CNC(=O)/C(=N/OC)c1cccc(C)c1CO/N=C(\C)c1c(F)ccc(C(F)(F)F)c1NC [compound 233] — higher, 27%
- CNC(=O)/C(=N/OC)c1cccc(C)c1CO/N=C(\CC1CC1)c1cccc(C(F)(F)F)c1 [compound 234] — higher, 15%

Same assay, conditions: protective, inoculation six days after spraying, 4 ppm, % diseased leaf area

For CO/C=C(/C(=O)OC)c1cccc(C)c1CO/N=C(\C)c1cccc(C(F)(F)F)c1 [compound 231], the “PHAKPA (F129L) Disease level (%) P6 at 4 ppm” value was 2%.

Same assay, conditions: protective, inoculation six days after spraying, 16 ppm, % diseased leaf area

With CNC(=O)/C(=N/OC)c1cccc(C)c1CO/N=C(\C)c1cc(F)ccc1F [compound 131] the “PHAKPA (F129L) Disease level (%) P6 at 16 ppm” value was 0%.
